Assay results from patent US10189809B2, “SGC stimulators” (Ironwood Pharmaceuticals, Inc., priority 2010, dated 2019).

Tests used:
[1] = target: T1, soluble guanylate cyclase (sGC) (Homo sapiens (Human), UniProt Q02108+Q02153); assay: sGC-HEK-cGMP assay run in the absence of SNP (HEK WC assay); type: cell-based; settings: no SNP, increase in the sGC receptor activity; for HEK WC Assay (fold increase at 10 μM): compound at 10 μM; for HEK WC Assay (fold increase at 30 μM): compound at 30 μM
Outline: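 HEK293 cells with endogenous sGC, preincubated 15 min at 37° C with 0.5 mM IBMX, then exposed to test compound 10 min at 37° C without SNP. Cells lysed in 0.1 M HCl; cGMP quantified by LC/MS against a standard curve. EC50 from concentration-response curves.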

[2] = target: T1, soluble guanylate cyclase (sGC); assay: sGC-HEK-cGMP assay run with SNP incubation (HEK WC assay); type: cell-based; settings: for Emax at 10 µM: read-out: HEK WC Assay (% Emax at 10 uM/with 10 uM SNP); for Emax at 30 µM: read-out: HEK WC Assay (% Emax at 30 uM/with 10 uM SNP)
Outline: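 HEK293 cells with endogenous sGC were pretreated with 0.5 mM IBMX for 15 min at 37 °C, then exposed to test compound plus sodium nitroprusside for 10 min at 37 °C.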

[3] = target: T2, Human soluble guanylate cyclase enzyme (hsGC) (Homo sapiens (Human), UniProt Q02108+Q02153); assay: Purified human sGC enzyme activity assay; type: biochemical; settings: for sGC Enzyme (specific activity at 10 μM) / sGC Enzyme (fold increase at 10 μM without SNP): 10 μM compound; for sGC Enzyme (specific activity at 30 μM) / sGC Enzyme (fold increase at 30 μM without SNP): 30 μM compound
Outline: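 Purified human sGC (5 ng) incubated 30 min at 37° C with compound at 10 or 30 μM final in pH 8.0 Tris with 300 μM GTP, 2 mM MgCl2, 2 mM DTT and 1 mM IBMX, then stopped with cold methanol. cGMP quantified against a standard curve. Specific activity (nmol cGMP/mg sGC/min) expressed as fold-change over DMSO control.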

[4] = system: Thoracic aortic rings; assay: Thoracic aortic rings assay (Example 19a; IBMX as 100% inhibition); settings: compound at 10 μM; rat thoracic aortic rings contracted with 100 ng/mL phenylephrine; read-out: Percent Relaxation at 10 μM
Method: Thoracic aortic rings were dissected from anesthetized (isoflurane) male Sprague-Dawley rats weighing 275-299 g. Tissues were immediately transferred to ice-cold Krebs-Henseleit solution, which had been aerated with 95% O2 and 5% CO2 for 30 minutes. Following removal of connective tissue, aortic sections were cut into 4 rings (˜2 mm each) and suspended on 2 L-shaped hooks, with one hook fixed at the bottom of the tissue bath (Schuler Organ Bath, Harvard Apparatus) and the other connected to a force transducer (F30 Force Transducer, Harvard Apparatus). Baths contained Krebs Henseleit solution (10 mL) heated to 37° C. and aerated with 95% O2 and 5% CO2. Rings were brought to an initial tension of 0.3-0.5 g and gradually raised to a resting tension of 1.0 g over 60 minutes. Rings were rinsed with Krebs Henseleit solution (heated to 37° C. and aerated with 95% O2 and 5% CO2) at 15 minute intervals until a stable baseline was obtained. Rings were considered to be stable after a resting tension of 1.0 g was maintained (for approximately 10 minutes) without need for adjustment. Rings were then contracted with 100 ng/mL phenylephrine by adding 100 uL of a 10 μg/mL phenylephrine stock solution. Tissues achieving a stable contraction were then treated in a cumulative, dose dependent manner with test compounds prepared in dimethylsulfoxide (DMSO). In some cases, tissues were rinsed three times over a 5 minute period with Krebs-Heinseleit's solution (heated to 37° C. and aerated with 95% O2 and 5% CO2), allowed to stabilize at baseline, and then used for characterization of other test articles or DMSO effects. All data were collected using the HSE-ACAD software provided by Harvard Apparatus. […] EC50 values were calculated from concentration-response curves generated with GraphPad Prism Software.

[5] = target: T2, Human soluble guanylate cyclase enzyme (hsGC); assay: Purified human sGC enzyme synergy assay in the presence of 1 μM sodium nitroprusside (SNP); type: biochemical; settings: with 1 μM SNP; for sGC Enzyme (fold increase at 10 μM with SNP): 10 μM compound; for sGC Enzyme (fold increase at 30 μM with SNP): 30 μM compound
Outline: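 Purified human sGC (5 ng) incubated 30 min at 37 °C with compounds at 10 or 30 μM, 1 μM sodium nitroprusside, 300 μM GTP and 1 mM IBMX in Tris pH 8.0 with MgCl2/DTT. cGMP quantified against a standard curve, and specific activity expressed as fold-change over DMSO control.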

T1 sequence (Q02153 whole entry): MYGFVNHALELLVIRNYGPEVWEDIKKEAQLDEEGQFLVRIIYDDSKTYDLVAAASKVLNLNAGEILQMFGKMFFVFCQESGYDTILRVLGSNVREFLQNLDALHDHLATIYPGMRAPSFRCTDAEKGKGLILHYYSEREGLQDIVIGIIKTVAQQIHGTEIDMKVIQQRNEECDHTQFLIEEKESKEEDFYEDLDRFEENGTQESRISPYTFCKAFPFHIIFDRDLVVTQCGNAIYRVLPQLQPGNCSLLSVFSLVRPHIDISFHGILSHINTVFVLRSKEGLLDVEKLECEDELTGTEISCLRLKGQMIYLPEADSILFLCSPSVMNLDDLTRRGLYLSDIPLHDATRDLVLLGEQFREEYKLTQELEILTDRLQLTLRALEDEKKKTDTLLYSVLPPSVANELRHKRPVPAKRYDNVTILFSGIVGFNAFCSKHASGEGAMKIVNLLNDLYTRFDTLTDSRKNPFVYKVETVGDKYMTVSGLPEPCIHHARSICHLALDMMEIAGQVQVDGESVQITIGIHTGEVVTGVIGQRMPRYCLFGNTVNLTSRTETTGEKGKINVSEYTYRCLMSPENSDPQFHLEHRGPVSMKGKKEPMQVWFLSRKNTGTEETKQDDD
T1 sequence (Q02108 whole entry): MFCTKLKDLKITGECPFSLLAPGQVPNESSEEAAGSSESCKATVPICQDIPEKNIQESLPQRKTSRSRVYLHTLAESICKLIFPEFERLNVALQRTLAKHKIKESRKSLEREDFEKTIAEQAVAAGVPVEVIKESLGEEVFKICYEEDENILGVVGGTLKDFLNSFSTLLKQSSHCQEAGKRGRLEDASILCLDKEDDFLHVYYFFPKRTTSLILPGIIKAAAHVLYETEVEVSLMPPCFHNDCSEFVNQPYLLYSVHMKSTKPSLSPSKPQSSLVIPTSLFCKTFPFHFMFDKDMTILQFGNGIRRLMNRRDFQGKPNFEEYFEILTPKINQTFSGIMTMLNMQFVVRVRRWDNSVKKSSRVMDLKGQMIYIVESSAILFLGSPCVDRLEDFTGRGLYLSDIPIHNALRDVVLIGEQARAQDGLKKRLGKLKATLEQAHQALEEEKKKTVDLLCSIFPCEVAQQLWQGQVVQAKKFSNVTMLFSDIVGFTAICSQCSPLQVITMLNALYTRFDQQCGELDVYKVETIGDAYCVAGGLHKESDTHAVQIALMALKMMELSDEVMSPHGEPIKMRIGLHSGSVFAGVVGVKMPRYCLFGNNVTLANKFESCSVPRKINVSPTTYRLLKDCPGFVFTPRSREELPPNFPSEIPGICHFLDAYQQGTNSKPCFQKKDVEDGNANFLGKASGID
T2 sequence (Q02153 whole entry): as the sequence (Q02153 whole entry) above
T2 sequence (Q02108 whole entry): as the sequence (Q02108 whole entry) above

| SMILES | HEK WC Assay (fold increase at 10 μM) [1] | HEK WC Assay (fold increase at 30 μM) [1] | Emax at 10 µM [2] | Emax at 30 µM [2] | sGC Enzyme (specific activity at 10 μM) [3] | sGC Enzyme (fold increase at 10 μM without SNP) [3] | sGC Enzyme (specific activity at 30 μM) [3] | sGC Enzyme (fold increase at 30 μM without SNP) [3] | inhibition at 10 µM [4] | sGC Enzyme (fold increase at 10 μM with SNP) [5] | sGC Enzyme (fold increase at 30 μM with SNP) [5] |
| --- | --- | --- | --- | --- | --- | --- | --- | --- | --- | --- | --- |
| Fc1ccccc1Cn1nc(-c2ccccn2)cc1-c1ccccc1 [Compound I-5] | A (A = no increase to <1 fold increase) | A (A = no increase to <1 fold increase) | 0 to 10% | 10 to 20% | D (D = 200 to <500) | B (B = 2 to <5 fold increase) | D (D = 200 to <500) | B (B = 2 to <5 fold increase) | 55.6% | B (B = 2 to <5 fold increase) | B (B = 2 to <5 fold increase) |
| COc1cccc(-c2cc(-c3ncccn3)nn2Cc2ccccc2F)n1 [Compound I-6] | B (B = 1 to <2 fold increase) | C (C = 2 to <5 fold increase) | 20 to 40% | 20 to 40% | D (D = 200 to <500) | B (B = 2 to <5 fold increase) | D (D = 200 to <500) | B (B = 2 to <5 fold increase) | 102% | B (B = 2 to <5 fold increase) | D (D = equal or >10 fold increase) |
| Fc1ccccc1Cn1nc(-c2ncccn2)cc1-c1nccs1 [Compound I-33] | B (B = 1 to <2 fold increase) | C (C = 2 to <5 fold increase) | 20 to 40% | 40 to 60% | C (C = 100 to <200) | A (A = no increase to <2 fold increase) | D (D = 200 to <500) | C (C = 5 to <10 fold increase) | 110% |  | D (D = equal or >10 fold increase) |
